Data published in ChEMBL document CHEMBL3091398, “Anthranilic acid-based Thumb Pocket 2 HCV NS5B polymerase inhibitors with sub-micromolar potency in the cell-based replicon assay” (Bioorg Med Chem Lett, 2013).

How the values were obtained:
[1] = Inhibition of HCV genotype 1b NS5B delta21 polymerase; design: species or system Hepatitis C virus subtype 1b
Hepatitis C virus = experiment: Antiviral activity against HCV genotype 1b by cell-based luciferase reporter gene assay; format: functional, organism-based, Hepacivirus hominis
[2] = Permeability across apical to basolateral side in human Caco2 cells; format: ADME, cell-based; conditions: Caco-2, read-out: permeability
[3] = Half life in human liver microsomes at 2 uM; format: ADME
[4] = Dissociation constant, pKa of the compound; format: physicochemical
[5] = Half life in rat liver microsomes at 2 uM; format: ADME
[6] = Solubility of the compound at pH 2 after 24 hrs by shake-flask method; format: physicochemical; conditions: buffer, pH 2, 24 h
[7] = Lipophilicity, log D of the compound at pH 7.4; format: physicochemical; conditions: buffer

| SMILES | IC50 [1] [nM] | EC50 (Hepatitis C virus) [nM] | further results |
| --- | --- | --- | --- |
| O=C(O)c1ccc(Oc2ccccc2C(F)(F)F)cc1NS(=O)(=O)c1ccc(Br)s1 | 3000 | > 30000 | – |
| CC[C@H]1CC[C@H](C(=O)N(c2ccc(Oc3ccccc3)cc2C(=O)O)C(C)C)CC1 | 1300 | 25000 | – |
| O=C(O)c1ccc(Oc2ccc(C(=O)O)c(NS(=O)(=O)c3ccc(Br)s3)c2)cc1 | 2200 | – | – |
| Cc1ccccc1Oc1ccc(C(=O)O)c(NS(=O)(=O)c2ccc(Br)s2)c1 | 1500 | – | – |
| Cc1ccc(S(=O)(=O)Nc2ccc(Oc3ccccc3)cc2C(=O)O)cc1 | 220 | > 30000 | – |
| CC(C)N(C(=O)c1ccc(Br)cc1F)c1ccc(Oc2ccccc2)cc1C(=O)O | 1640 | > 10000 | – |
| CC(C)N(c1ccc(Oc2ccccc2)cc1C(=O)O)C(=O)[C@H]1CC[C@H](C(F)(F)F)CC1 | 2000 | 16000 | – |
| Cc1ccc(S(=O)(=O)Nc2ccc(Oc3cccc(C)c3)cc2C(=O)O)cc1 | 470 | > 30000 | – |
| CC(C)N(c1cc(Oc2ccccc2)ccc1C(=O)O)C(=O)[C@H]1CC[C@H](C(F)(F)F)CC1 | 1300 | 16000 | – |
| CC(C)N(c1ccc(Oc2ccccc2)cc1C(=O)O)C(=O)[C@H]1CC[C@H](C)CC1 | 670 | 5000 | – |
| O=C(O)c1cc(Oc2ccccc2)ccc1NS(=O)(=O)c1ccc(Br)cc1F | 340 | > 30000 | – |
| Cc1ccc(S(=O)(=O)Nc2ccc(Oc3ccccc3C(F)(F)F)cc2C(=O)O)cc1 | 270 | 7300 | Papp A→B [2]: 3.6 ×10⁻⁶ cm/s; half-life at 2 µM [3]: 0.2 h |
| Cc1ccc(S(=O)(=O)Nc2ccc(OC3CCCC3)cc2C(=O)O)cc1 | 210 | 8600 | – |
| Cc1cccc(Oc2ccc(C(=O)O)c(NS(=O)(=O)c3ccc(Br)s3)c2)c1 | 1100 | – | – |
| CC[C@H]1CC[C@H](C(=O)N(c2cc(Oc3ccccc3)ccc2C(=O)O)C(C)C)CC1 | 4300 | > 40000 | – |
| Cc1ccc(Oc2ccc(NS(=O)(=O)c3ccc(C)cc3)c(C(=O)O)c2)cc1 | 780 | > 30000 | – |
| CC(C)N(c1ccc(Oc2ccccc2C(F)(F)F)cc1C(=O)O)C(=O)[C@H]1CC[C@H](C)CC1 | 190 | – | pKa [4]: 5.5; Papp A→B [2]: 15 ×10⁻⁶ cm/s; half-life at 2 µM [5]: 1.3 h; solubility [6]: < 0.1 µg/mL; logD [7]: 2.9 |
| CC(C)N(c1ccc(OC2CCCC2)cc1C(=O)O)C(=O)[C@H]1CC[C@H](C)CC1 | 460 | 1000 | – |
| O=C(O)c1cccc(Oc2ccc(C(=O)O)c(NS(=O)(=O)c3ccc(Br)s3)c2)c1 | 1400 | – | – |
| CC(C)N(c1cc(OC2CCCC2)ccc1C(=O)O)C(=O)[C@H]1CC[C@H](C)CC1 | > 40000 | > 50000 | – |
| CC(C)N(c1ccc(Oc2ncccc2C(F)(F)F)cc1C(=O)O)C(=O)[C@H]1CC[C@H](C)CC1 | 80 | – | half-life at 2 µM [5]: 1 h; solubility [6]: < 0.1 µg/mL; half-life at 2 µM [3]: 1.15 h |

| SMILES | IC50 [1] [nM] | EC50 (Hepatitis C virus) [nM] | further results |
| --- | --- | --- | --- |
| CC(C)N(c1ccc(Oc2ccccc2OC(F)(F)F)cc1C(=O)O)C(=O)[C@H]1CC[C@H](C)CC1 | 740 | 2800 | – |
| CC(C)N(c1ccc(Oc2ccncc2C(F)(F)F)cc1C(=O)O)C(=O)[C@H]1CC[C@H](C)CC1 | 190 | 170 | – |
| CC(C)N(c1ccc(Oc2ccccc2Br)cc1C(=O)O)C(=O)[C@H]1CC[C@H](C)CC1 | 450 | 4900 | – |
| CC(C)N(c1cc(Oc2ccccc2)ccc1C(=O)O)C(=O)[C@H]1CC[C@H](C)CC1 | 740 | 11000 | – |
| CC(C)N(c1ccc(Oc2ccccc2C(F)F)cc1C(=O)O)C(=O)[C@H]1CC[C@H](C)CC1 | 200 | 1100 | – |
| Cc1ccc(S(=O)(=O)Nc2cc(Oc3ccccc3)ccc2C(=O)O)cc1 | 160 | > 30000 | – |
| Cc1ccc(Oc2ccc(C(=O)O)c(NS(=O)(=O)c3ccc(Br)s3)c2)cc1 | 1900 | – | – |
| Cc1ccc(S(=O)(=O)Nc2ccc(Oc3ccccc3OC(F)(F)F)cc2C(=O)O)cc1 | 370 | 7000 | – |
| O=C(O)c1ccc(Oc2ccccc2)cc1NS(=O)(=O)c1ccc(Br)cc1F | 310 | > 30000 | – |
| Cc1ccc(S(=O)(=O)Nc2ccc(Oc3cccc(C(=O)O)c3)cc2C(=O)O)cc1 | 330 | > 30000 | – |
| CC(C)N(c1ccc(Oc2ccccc2C2CC2)cc1C(=O)O)C(=O)[C@H]1CC[C@H](C)CC1 | 330 | 4300 | – |
| CC(C)N(c1ccc(Oc2ccccc2C(C)(F)F)cc1C(=O)O)C(=O)[C@H]1CC[C@H](C)CC1 | 300 | 620 | – |
| CC(=O)Nc1ccc(Oc2ccc(NS(=O)(=O)c3ccc(C)cc3)c(C(=O)O)c2)cc1 | 290 | 30000 | – |
| Cc1ccc(S(=O)(=O)Nc2ccc(Oc3ccccc3C)cc2C(=O)O)cc1 | 530 | > 30000 | – |
| CC(C)N(C(=O)c1ccc(Br)cc1F)c1cc(Oc2ccccc2)ccc1C(=O)O | 1400 | > 10000 | – |
| CC(C)N(c1cc(Oc2ccccc2C(F)(F)F)ccc1C(=O)O)C(=O)[C@H]1CC[C@H](C)CC1 | 1300 | 4500 | – |
| CC(C)N(c1ccc(Oc2cccc(C(F)(F)F)c2)cc1C(=O)O)C(=O)[C@H]1CC[C@H](C)CC1 | 470 | 6300 | – |
| CC(=O)Nc1ccc(Oc2ccc(C(=O)O)c(NS(=O)(=O)c3ccc(Br)s3)c2)cc1 | 2900 | – | – |
| Cc1ccc(S(=O)(=O)Nc2ccc(Oc3ccc(C(=O)O)cc3)cc2C(=O)O)cc1 | 85 | > 30000 | – |
| O=C(O)c1ccc(Oc2ccccc2)cc1NS(=O)(=O)c1ccc(Br)s1 | 610 | > 25000 | – |
